Assay results reported in patent EP0665223A1, “Antitumor agent, novel 3(2H)-pyridazinone derivatives and their preparation” (TAKEDA CHEMICAL INDUSTRIES, LTD., priority 1994, dated 1995).

How the values were obtained:
[1] = system: human pancreatic carcinoma cells AsPC-1; experiment: Suppressing proliferation of pancreatic carcinoma in vivo (AsPC-1 transplanted subcutaneously into nude mice, tumor volume); parameters: species or system Balb/c nude mice; settings: once for two days during 14 days, tumor volume of treated group to control group
Experimental: The human pancreatic carcinoma cells AsPC-1 (3x10⁶cells) were transplanted subcutaneously into Balb/c nude mice (7 week old) at the flank. On 35th day after the transplantation, the tumor size was measured. Five mice (per group) with almost the same tumor size were employed for the experiment. These groups were respectively administered intraperitoneally with No. 1, 2 and 19 of the compounds of this invention dissolved in corn oil, once for two days during 14 days. On the day following the completion of administration, the tumor size was measured, and the tumor volume was calculated by the formula: Tumor volume = major axis x minor axis x minor axis x (1/2) [formula] . The ratio of the tumor volume in the treated group to that in a control group to which corn oil alone was administered was calculated as a proliferation ratio.

[2] = system: pancreatic cancer cell strain PC-3; experiment: Suppressing proliferation of PC-3 cells in vitro (MTT, number of living cells); type: cell-based; settings: 96 h, PC-3, F-12K medium, incubated 4 days with test compound
Experimental: (§1) A cell suspension of pancreatic cancer cell AsPC-1 (20000/ml) in RPMI 1640 medium (Flow Laboratories) supplemented with 10% of inactivated fetal calf serum, 1 mM of sodium pyruvate and 25 mM of HEPES [2-{4-(2-hydroxyethyl)-1-piperazinyl}ethanesulfonic acid] was added to 96-well micro-culture plates (50ul/well). The culture plates were incubated at 37°C in a 5% CO₂ incubator. On the following day, the solution of each test compound dissolved in dimethylformamide and diluted (3-fold steps) was added (50 ul/well), which was incubated for further 3 days. The culture broth containing the test compounds was eliminated, and the cells were washed, to which was added a solution of MTT pigment, and the number of living cells was calculated [Tada et al. J. Immunol. Methods, 93 p.157 (1986)]. The number of cells in the control group containing no test compound was assumed to be 100%, and the respective ratios of cell numbers in groups containing the respective test compounds were calculated to thereby determine the concentrations (IC₅₀ value) of the respective test compounds necessary to suppress the number of living cells to 50% of that of the control group.
For the test of pancreatic cancer cell strain PC-3, the same method in the case of AcPC-1 was employed excepting the use of F-12K medium containing 10% inactivated fetal calf serum (Flow Laboratories) and change of the incubation period after adding the test compounds to 4 days, to thereby determine the IC₅₀ value (nm).

[3] = system: pancreatic cancer cell AsPC-1; experiment: Suppressing proliferation of pancreatic cancer cell AsPC-1 in vitro (MTT, number of living cells); type: cell-based; settings: Homo sapiens, ASPC1, 72 h, AsPC-1, RPMI 1640 medium, incubated 3 days with test compound
Experimental: as §1

[4] = Dosage 16.7 mg/kg intraperitoneally in corn oil

Row | IC50 [2] [nM] | IC50 [3] [nM] | Structure (SMILES) | Proliferation ratio (%) ([1]; Dosage 6.7 mg/kg intraperitoneally in corn oil) | Proliferation ratio (%) [1, 4] [%]
1 | < 1.52 | 180 | CC(C)(C)c1ccc(COc2cnn(C(C)(C)C)c(=O)c2Cl)cc1 [Compound 19, 2-t-butyl-4-chloro-5-(4-t-butyl)benzyloxy-3(2H)pyridazinone] | – | 29
2 | 120 | 440 | CC(C)(C)n1ncc(SCc2ccccc2)c(Cl)c1=O [Compound 2, 2-t-butyl-4-chloro-5-benzylthio-3 (2H)pyridazinone] | – | 48

Row | Structure (SMILES) | IC50 [2] [nM] | IC50 [3] [nM] | Proliferation ratio (%) ([1]; Dosage 6.7 mg/kg intraperitoneally in corn oil) | Proliferation ratio (%) [1, 4] [%]
3 | CC(C)(C)c1ccc(CSc2cnn(C(C)(C)C)c(=O)c2Cl)cc1 [Compound 1, 2-t-butyl-4-chloro-5-(4-t-butyl)benzylthio-3(2H)pyridanzine] | < 1.52 | 16 | 56 | –
